From US20050169928A1, “Antibodies which bind to proteins involved in cytoadhesion of plasmodlum falciparum ring-stage-infected erythrocytes” (INSTITUT PASTEUR, priority 2000, published 2005)

How the values were obtained:
Format in all cases: cell-based, P. falciparum
[1] = tested on: ring-stage PA^CSA IE cytoadhesion to SBEC 1D; assay: Ring-stage IE cytoadhesion inhibition assay on SBEC 1D (Example 1); details: for inhibitory activity on ring-stage IE cytoadhesion to SBEC 1D (in words): ring-stage PA^CSA IE 8 hours post-invasion, glycosaminoglycans, enzymes on target cells, thrombospondin; for sensitivity of ring-stage IE^CSA cytoadhesion to inhibitor: 0.1 mg/ml CSA, or target cells pretreated with 1 U/ml chondroitinase ABC, until the 16th hour after invasion; for time after invasion of maximal inhibition of IE^CSA binding: highly synchronized PA^CSA IE tested every 4 hours throughout the cycle
Protocol: Gelatin-enriched preparations of mature-stage IE were resuspended at a concentration of 5×10^6 IE/ml in cytoadhesion medium at pH 6.8. Cytoadhesion microassays were then performed on 12-well IFA slides (Institut Pasteur, Paris) as previously described (Pouvelle, B. Fusai, T. Lepolard, C. & Gysin, J. biological and biochemical characteristics of cytoadhesion of Plasmodium falciparum-infected erythrocytes to chondroitin-4-sulfate. Infect. Immun. 66, 4950-4956 (1998)).
Ring-stage cytoadhesion assays were performed with endothelial cells as described above and with placental cryosections as previously described (Gysin, J., Pouvelle, B., Le Tonqueze, M., Edelman, L. & Boffa, M. C., Chondroitin sulfate of thrombomodulin is an adhesion receptor for Plasmodium falciparum-infected erythrocyics. Mol. Biochem. Parasitol. 88, 267-271 (1997)), with 1 to 10% parasitaemia (a 1×10^7 IE/ml suspension).
For cytoadhesion inhibition assays, the IE were incubated with SBEC in the presence of 2.5 μg/ml thrombospondin, 0.1 mg/ml soluble CSA, dermatan sulphate (CSB), chondroitin-6-sulphate (CSC), keratin sulphate (Ker), hyaluronic acid (HA), heparin (Hep) (Fluka, France), or with SBEC previously incubated for 1 hour at 37° C. with 1 U/ml chondrotinase ABC (Fluka, France), 1 to 10 U/ml heparinase III (Hepase III) (Sigma, France) or 5 μg/ml anti-CD36 FA6-152 Mab (gift from Dr. Edelman). Inhibition assays were also carried out in the presence of sera obtained from Senegalese and Cameroonian patients living in areas of endemic malaria. The sera were obtained from primigravida and multigravida women, an adult and a child, absorbed onto O^+ human blood and SBEC ID, and tested at a dilution of 1/20. The results were compared to those for cytoadhesion in the presence of a 1/20 dilution of a pool of control sera from volunteers who had never contacted malaria.
The protease sensitivity of ring-stage IE cytoadhesion was analyzed using 5 μl of packed PA^CSA IE (8 hours post-invasion). IE were incubated with 10 or 100 μg/ml of trypsin TPCK (Signa) or 100 μg/ml of α-chymotrypsin TLCK (Sigma) for 30 minutes at 37° C. The digestion was stopped by adding culture medium containing 10% human plasma. The cells were then washed in cytoadhesion medium and allowed to cytoadhere to SBEC 1D, as previously described, using untreated PA^CSA as a control.

[2] = tested on: adherent rIE^CSA/nE and mature IE^CSA on SBEC 1D; assay: Cytoadhesion inhibition and desequestration under flow conditions at 0.05 Pa; details: B4 200 μg/ml, CSA 10 μg/ml final
Protocol: In short: Four serial 7 μm normal human placenta cryosections (each of approximately 4 mm×4 mm) of the maternal compartment were mounted on a microscopic slide 75-25 mm and fixed with 0.5% para-formaldehyde in PBS at pH 7.2, for 2 hours at room temperature. After washing several times with PBS and then with RPMI 1640 pH 6.8, the slide is mounted on a perfusing chamber (Immunetics, France). An equipart mixture of 8±4 hours old synchronized rIE^CSA (including nE from the same culture) and 34±4 hours old IE^CSA at a final hematocrit of 25% in RPMI 1640, pH 7.2 were then flow through the chamber for 10 min at 0.05 Pascals. After rinsing for 10 min with the medium at the same shear stress, 100 ug/ml of a 50 kDa CSA (Fluka, France) dissolved in RPMI or 200 ug/ml of mAbs was flushed through the chamber for 10 min at the same shear stress. Slides from 3 experiments were recovered and stained by Giemsa. Mature IE, rIE and nE were counted and the result expressed as arithmetic mean percentage of bound erythrocytes±SD/20 fields of 100× Oil magnification as described elsewhere (Gysin, J., B. Pouvelle, N. Fievet, A. Scherf, and C. Lepolard. 1999. Ex vivo desequestration of Plasmodium falciparum-infected erythrocytes from human placenta by chondroitin sulfate A. Infect Immun. 67:6596-602).

[3] = tested on: cytoadhesion of IE on endothelial cells or placenta cryosections; assay: Stage-specific cytoadhesion inhibition on endothelial cells or placenta cryosections (discussion)
Protocol: Cytoadhesion inhibition and disruption assays were performed on SBEC 1D cells grown to confluence on 12-dot IFA slides as described elsewhere (Pouvelle, B., P. Meyer, C. Robert, L. Bardel and J. Gysin. 1997. Chondroitin-4-sulfate impairs in vitro and in vivo cytoadherence of Plasmodium falciparum infected erythrocytes. Mol Med. 3:508-18) by assessing the laboratory CSA-binding strains FCR3, FCBR, BXII, SUK, HB, IBR and the placenta isolates no. 24, 42,42DJ, 193 and 939. In short: 20 μl of a mixture of synchronized rIE with nE or mIE from corresponding cultures at a parasitaemia of 4-15% for a total 10^7 IE/ml RPMI 1640, pH6.8 were layered per dot of confluent SBEC 1D cells. For the inhibition assay, 20 μl of each mAb at a concentration of 0.2 to 200 μg/ml was deposited simultaneously with rIE or IE and corresponding nE/dot for 2 hours at +37° C. For the disruption assay the same mAbs were added after a one hour preincubation of IEs and nEs with endothelial cells for an additional 1 hour. Unbound erythrocytes were removed by vigorously washing the slides in RPMI 1640, pH6.8. Bound IE and nE were fixed with 0.25% glutaraldehyde in PBS pH7.2. The inhibition and disruption of cytoadhesion was expressed as bound IE and nE/mm^2 of confluent endothelial cells in the presence of mAbs, in comparison to unrelated mouse IgG of the same IgG isotype (Sigma, USA). […]

For heparin, the “inhibition of ring-stage cytoadhesion” value ([1]; Heparin 100 μg/ml, heparinase treatment of target cells, SBEC 1D) was “about 50%”.

hyaluronate lyase was tested, and the “inhibitory activity on ring-stage IE cytoadhesion to SBEC 1D (in words)” value (“inhibitory activity” below) [1] was “low level of inhibitory activity”.

In the case of hyaluronic acid, the “inhibitory activity” value [1] is reported as “no activity”.

chondroitin-sulphate A [CSA] was tested, and the “sensitivity of ring-stage IE^CSA cytoadhesion to inhibitor” value [1] was “insensitive”, the “time after invasion of maximal inhibition of IE^CSA binding” value [1] was 24 h and the “desequestration of adherent mature IE^CSA by flushing” value [2] was “removed only the mature forms”. The “inhibition of cytoadhesion of mature blood stages” value ([3]; mature blood stages) was greater than 90% and the “inhibition of cytoadhesion of young trophozoites” value ([3]; young trophozoites (16-20 hours), RSP-2 and PfEMP1 both expressed) was no more than 25%.

In the case of chondroitinase ABC, the “sensitivity of ring-stage IE^CSA cytoadhesion to inhibitor” value [1] is reported as “insensitive”, the “time after invasion of maximal inhibition of IE^CSA binding” value [1] is reported as 24 h and the “inhibitory activity” value [1] is reported as “no significant inhibitory activity”.

In the case of “Thrombospondin: mature-stage IE adhesion receptor protein tested at 2.5 μg/ml”, the “inhibitory activity” value [1] is reported as “no effect”.

For dermatan-sulphate, the “inhibitory activity” value [1] was “not specific”.

B1: trypsin: protease used to treat ring-stage IE (protein, UniProt P00760 24-246, looked up)
Serine protease 1: IVGGYTCGANTVPYQVSLNSGYHFCGGSLINSQWVVSAAHCYKSGIQVRLGEDNINVVEGNEQFISASKSIVHPSYNSNTLNNDIMLIKLKSAASLNSRVASISLPTSCASAGTQCLISGWGNTKSSGTSYPDVLKCLKAPILSDSSCKSAYPGQITSNMFCAGYLEGGKDSCQGDSGGPVVCSGKLQGIVSWGSGCAQKNKPGVYTKVCNYVSWIKQTIASN
modifications: TPCK-treated
notes: protease used to treat ring-stage IE
In the case of B1, the “inhibition of ring-stage IE adhesion after protease treatment of IE” value ([1]; protease concentration 100 μg/ml) is reported as “substantially inhibited”.
